Entries after “also recorded” stand apart in the source; their conditions may differ. Structures can show the parent of a compound that is named as a salt.

Series [1] is described as follows: Acute toxicity test, i.v. (LD50). As to conditions: rat, in vivo, iv, rats. The source says: This non-toxicity of the compounds makes it possible to administer the compounds to patients daily for a long period of time without interruption, without significant side effects, until the cancer tumors are suppressed. The non-toxicity, the apoptotic effects and the reversal of multidrug resistance of the compounds will change the procedures of conventional chemotherapy completely.

The test system of a further series is breast cancer cell lines. The series can be described thus: Cancer cell death assay (LDH release), breast lines. The note with it: compound alone, 24 hours. In kind it is cell-based, human. The procedure: (§1) 1. Cancer Cell Death Assay
(§2) Cell death was measured quantitatively by the release of a marker intracellular enzyme, lactate dehydrogenase (LDH), from damaged or killed cells. LDH released into the extracellular fluid, was measured 24 hours after drug exposure to cancer cells and the enzyme activity was determined by the method of Decker et al. (J. Immunolog Methods 15:61-99, 1988).
(§3) All cell lines used in the present study were obtained from the American Type Tissue Culture Laboratory and cultured according to their specifications. All were human cancer lines unless otherwise noted. The following cell lines and their tissue of origin used in our studies were:
(§4) The first assays performed measured the anti-neoplastic activity of NCO-700, alone, in cell death assays of a wide variety of human cancer cells. The results of these experiments are shown in FIGS. 1-6, where a dose-response curve of NCO-700 versus % LDH release is plotted, with higher values of LDH released indicating greater anti-neoplastic activity (apoptosis).
(§5) In FIG. 8, a dose-response curve is shown of the effect of TOP-008 on the killing of breast, prostate and colon cell lines.
(In general: LDH in the medium is a marker of cell lysis.)

The subject of series [2] is prostate cancer cell lines. The series is described as follows: Cancer cell death assay (LDH release), prostate lines. In kind it is cell-based, human. The note with it: compound alone, 24 hours. The procedure: as §1, §2, §3, §4, §5
The test system of a further series is colon cancer cell lines. The series is described as follows: Cancer cell death assay (LDH release), colon lines. It is filed as cell-based, human. As to conditions: compound alone, 24 hours. The procedure:
as §1, §2, §3, §4, §5

The subject of another series is HL-60 (leukemia). The series is described as follows: Cancer cell death assay (LDH release), leukemia line. It is filed as cell-based, human. The note with it: compound alone, 24 hours. The procedure:
FIG. 4 is a graph showing the relationship between LDH released and the concentration of NCO-700 in cancer cell death assays of human cancer cell lines MCF-7 (breast), HL-60 (leukemia), and HEP-129 (liver).
as §1, §2, §3, §4

For the next series, the system named is PC-3 (prostate). The series is described as follows: Cancer cell survival assay, PC-3. In kind it is cell-based, human. The note with it: PC-3, seven days, alone. The procedure: (§6) Cell survival was assayed in cultured tumor cells. From 500-1000 cells per well were plated in 24-welled culture dishes and exposed to drug for seven days. After drug exposure, a computerized cell imaging technique was utilized to ascertain the number of viable cells remaining in each culture. From the data, survival curves were plotted and a ED50 (drug concentration that permits 50% cell survival) were calculated.
(§7) The cancer cell survival assay is an important additional in vitro assay to assess the anti-neoplastic activity of compounds as the cells are given a prolonged exposure (seven days) to the drug. FIGS. 9-16 show the effect of increasing the dose of NCO-700 on the survival of a number of cancer cell lines. […] In the figures, the vertical axis is the object area, which is the number of surviving cancer cells calculated by a computer.

In a further series the test system is LN (prostate). The series can be described thus: Cancer cell survival assay, LN. It is filed as cell-based, human. The note with it: seven days, alone. The procedure: as §6, §7
Series [3] has as its system PC-3 (prostate tumor cell line). The series is described as follows: Apoptosis induced DNA fragmentation (agarose gel). In kind it is cell-based, human. As to conditions: PC-3, 50 μM, 48 hours. The protocol: PC-3, a prostate tumor cell line, was treated with 25 μM TOP-008, 50 μM NCO-700, or water for 48 hours. The DNA from each sample was purified by phenol extraction, and the fragmentation was resolved on an agarose gel.

The test system of the next series is KB-CH 8-5. The series can be described thus: In vivo model of tumorigenicity, nude mice carrying resistant human tumor. The procedure:
3. In Vivo Model of Tumorigenicity
where the effect of NCO-700 in the ability of adriamycin to reduce tumor mass in drug-resistant neoplasms was measured.
For the in vivo model of tumorigenicity, cell lines developed by Pastan and Gottesman which can grow as solid tumors in nude mice were utilized. This cell line was designated KB-CH 8-5, and was a nonreverting resistant cell line. All of these cancer cell lines were generously provided by Dr. Gottesman.
In the next series of experiments, an in vivo model of tumorigenicity was utilized to examine the effect of NCO-700 on tumor mass. These experiments were performed with the cell line KB-CH-8/5, which is a cell line developed by Drs. Gottesman and Pastan, specifically for use in animals as the cells from solid tumors in vivo. Nude male mice, 5-6 weeks old and weighing between 25-30 g, were injected subcutaneously with 2-5×10^6 KB-CH-8/5 cells and treated for 14 days with 0.6 mg/kg adriamycin and with or without NCO-700 in doses ranging from 0-80 mg/kg NCO-700 per day. The data shown in FIG. 37 were obtained by weighing the well-encapsulated, excised tumor and recording the body weight of the mice.

A further series relates to ovarian tumor cells. The series is described as follows: Human tumor biopsy assay, ovarian tumor. It is filed as cell-based. As to conditions: 20 μM NCO-700 and 0.4 mg/ml vinblastine, 1 hour. The procedure: (§8) 4. Human Tumor Biopsy Assays
(§9) where the effect of NCO-700 to enhance killing, by either vinblastine or adriamycin, of cancer cells cultured directly from patient's tumors (Von Hoff et al., Cancer Res. 43:1926-1931, 1983).
(§10) For the tumor biopsy assay, primary cell cultures were propagated directly from tumor specimens removed from patients. The cells were grown in suspension culture, treated with adriamycin or vinblastine plus NCO-700, and plated onto soft agar and incubated for two weeks before cell survival was determined.
(§11) In a final series of experiments, the effect of NCO-700 on survival of cells cultured directly from biopsied patient tumors was performed. This technique, referred to as a human tumor cloning system, was developed by Von Hoff and associates (Von Hoff et al., Cancer Res. 43:1926-1931, 1983) and was used clinically to predict the course of chemotherapy for these patients. In this method, tumor biopsies were separated into cell suspensions and treated for 1 hour with either 0.4 mg/ml vinblastine (VLB) or 0.5 mg/ml adriamycin (ADR) plus or minus 20 μM NCO-700. The cell suspensions were washed after one hour of incubation and plated with soft agar. After 14 days of incubation at 37°, the percent of colonies surviving was scored. […] In particular, the survival of tumor cells decreased to approximately 1/2 to 1/3 after exposure to NCO-700 and adriamycin. […]

The next series has as its system human tumor cells. The series is described as follows: Human tumor biopsy assay, tumors in general. The note with it: 20 μM NCO-700 plus vinblastine or adriamycin. It is filed as cell-based. The protocol:
as §8, §9, §10, §11

One may read the LD50 as the dose expected to kill half of the subjects tested. In turn, `CCOC(=O)[C@@H]1O[C@H]1C(=O)N[C@@H](CC(C)C)C(=O)N1CCN(Cc2ccc(OC)c(OC)c2OC)CC1` [NCO-700, Bis[ethyl (2R,3R)-3-[(S)-3-methyl-1-[4-(2,3,4-trimethoxyphenylmethyl)piperazin-1-ylcarbonyl]butylcarbamoyl]oxirane-2-carboxylate] Sulfate] gave an LD50 in [1] of 317 mg/kg. The “anti-neoplastic activity (LDH release)” value is reported as “the cells that were responding to NCO-700 were estrogen receptor negative” in the series with breast cancer cell lines, “the cell lines that were testosterone receptor negative (and more malignant) responded very well” in series [2], “partly responsive” in the series on colon cancer cell lines and “did not respond” with HL-60 (leukemia). Besides, the “anti-neoplastic activity (cell survival)” value in the series on PC-3 (prostate) and with LN (prostate) was “significant anti-neoplastic activity” each time. Moreover, the DNA fragmentation result in series [3] is “significant DNA fragmentation”. In addition, the “effect on tumor, alone” value in the series on KB-CH 8-5 (NCO-700 on its own) is listed as “not significantly effective on its own”. In addition, the “decline of tumor mass” value with KB-CH 8-5 (NCO-700 with adriamycin) came out at 60%. The “loss of body weight” value in the series on KB-CH 8-5 (nude mice carrying resistant human tumor) was “without any corresponding loss of body weight”. Moreover, the “potentiation of the effect of adriamycin on tumor” value in the series with KB-CH 8-5 (with 0.6 mg/kg adriamycin, 14 days, NCO-700 0-80 mg/kg per day) is on record as “significantly potentiated the effect of adriamycin, especially at an amount of 40 mg/kg or more”. Besides, in the series with ovarian tumor cells, the “survival of tumor cells decreased to (fraction)” value is “approximately 1/3”. The “activity in inhibiting survival / sensitizing human tumor cells” value with human tumor cells is recorded as “significant activity in inhibiting the survival of certain human tumor cells; also recorded: excellent activity in sensitizing to anticancer drugs”. The “response of all other tumors” value with human tumor cells is “varying degrees of positive response”.

These data come from US6054437A, “Method for inducing death of neoplastic cells using piperazine derivatives” (Hitachi Chemical Research Center, Inc., priority 1997, dated 2000).
